Measured values: patent US4242350A, “Antisecretory thiadiazole derivatives, processes for their manufacture and pharmaceutical compositions containing them” (Imperial Chemical Industries Limited, priority 1978, dated 1980)

Experiments:
oral toxicity in rodents = type: in vivo; details: dosed orally to rodents at 300 mg/kg
oral tolerance in dogs = type: in vivo; details: dogs dosed orally with 100 mg./kg.
Source text: No overt toxicity or side effects were noted during the dog tests.

CNC(=NC#N)NCCSCc1nsc(NC(=N)N)n1 [3-[2-(2-cyano-3-methylguanidino)ethylthiomethyl]-5-guanidino-1,2,4-thiadiazole]
toxicity (oral toxicity in rodents): no toxicity | tolerance (oral tolerance in dogs): well tolerated
